CCOC(=O)c1c(CSc2ccccc2)n(C)c2cc(Br)c(O)c(CN(C)C)c12.Cl.O
solubility (mole fraction)
Details	293.15 K	298.15 K	303.15 K	308.15 K	313.15 K	318.15 K	323.15 K	328.15 K	333.15 K
in DMF	0.0228	0.0244	0.0276	0.0317	0.0351	0.0396	0.0457	0.0513	0.0596
in NMP	0.0325	0.0352	0.0375	0.0417	0.0462	0.0503	0.0554	0.0635	0.0722
in THF	0.000382	0.000492	0.000678	0.000947	0.00125	0.00163	0.00211	0.00265	–
in acetone	0.000193	0.000252	0.000364	0.000524	0.000696	0.000937	0.00128	–	–
in ethanol	0.00973	0.0116	0.0132	0.0154	0.018	0.0234	0.0294	0.0366	0.0436
in ethyl acetate	7.86e-05	0.000101	0.000125	0.000158	0.0002	0.000245	0.000295	0.000354	0.000426
in isopropanol	0.00114	0.00161	0.0021	0.0029	0.00356	0.00476	0.00602	0.00749	0.00955
in methanol	0.0405	0.0442	0.0494	0.0541	0.0622	0.0715	0.0786	0.0903	–
in n-butanol	0.00344	0.00441	0.00545	0.00709	0.00865	0.0105	0.0127	0.0159	0.0203
in n-propanol	0.00522	0.00628	0.00728	0.00878	0.0112	0.0141	0.0171	0.0214	0.027
in water	5.82e-05	7.34e-05	8.66e-05	0.000108	0.000126	0.000156	0.000204	0.000251	0.000309
